Data as given in patent US6517812B1, “Inhibition of psychostimulant-induced and nicotine-induced craving” (The General Hospital Corporation, priority 1997, dated 2003).

Test system: rat frontal cortex
Experiment: Laser Doppler-flowmetry (LDF) of regional cortical blood flow (CBF) in rat
Format: in vivo
Method: All procedures were carried out in accordance with NIH guidelines. Male Harlan Sprague-Dawley rats (225-300 gm) were anesthetized briefly with 1.5% halothane in oxygen for insertion of left femoral arterial and venous cannulae and placement of tracheostomy for mechanical ventilation (using a 16 gauge intravenous catheter, Inste-W, Becton Dickinson, Sandy, Utah). All wounds were infiltrated with 1% lidocaine before incision. Following surgery, the inspired halothane concentration was reduced to 0.7% and rats were paralyzed with 2 mg/kg intravenous pancuronium, followed by a continuous intravenous infusion of pancuronium at 2 mg/kg/hr. Pancuronium was dissolved in normal saline administered at 5 ml/kg/hr. Rats were mechanically ventilated (in a small animal volume controlled ventilator, Harvard Apparatus, Inc., South Natick, Mass.) with a 80/20 air/oxygen mixture, an inspiratory to expiratory ratio of 1:1, and an initial tidal volume of 3.0 ml at a rate of 40 breaths per minute. Ventilation parameters were adjusted to maintain normal arterial blood gases (pH=7.40±0.01, PaCO2=40±2, PaO2=145±10). Arterial blood samples (150 μl) withdrawn from cannula were analyzed for arterial partial pressures of oxygen, carbon dioxide, and pH (Ciba-Coming Model 1304) before administration of drugs, and at the end of each experiment before sacrifice, to ensure animal stability. Arterial blood pressure and rectal temperature were monitored throughout the experiment. […] Rats torsos were wrapped in two heating blankets (Gaymar, Orchid Park, N.Y.) circulating warm water to maintain core temperature at 37-38° C. To minimize MRI motion artifact, rats were placed into a custom plastic cradle attached to a head frame machined from delrin plastic (David Kopf Instruments, Fremont, Calif.); heads were fixed with plastic screws inserted into the ear canals and a bar inserted under the front incisors. Rat heads were shaved and covered with gel toothpaste to reduce magnetic susceptibility artifacts arising from air-tissue interfaces; ear canals and oropharynx were also filled with toothpaste. A surface coil was secured over the dorsal surface of the head before positioning the animal in the magnet center. Cocaine (RBI, Natick, Mass.), SCH-23390 (RBI, Natick, Mass.), and cocaine methiodide (NIDA, Bethesda, Md.) were dissolved in normal saline and administered in a 0.5 ml volume at a rate of 1 ml/min via the femoral vein. Sixty minutes passed before injections of cocaine were repeated.
Regional cortical blood flow was determined by LDF (Perimed, PF2B, Stockholm, Sweden) as described previously (Ayata, et al., 1996, J. Cereb. Blood Flow Metab., 16:539-541). Rats (n=8) were prepared exactly as for dynamic MR studies and positioned in a standard stereotaxic head frame. With the scalp incised and retracted, two holes (1-2 mm in diameter) were drilled through the skull 2 mm lateral to midline; one hole was 2 mm anterior to bregma overlying frontal cortex, and the other was 8 mm posterior to bregma to examine occipital cortex. The flow probe was positioned directly upon exposed dura mater in a puddle of mineral oil. […] All data were collected, stored, and analyzed using MacLab/8 data acquisition and analysis system (ADInstruments, Mountain View, Calif.). Arterial pressure was continuously monitored and the data stored; heart rate was calculated from arterial pressure pulses by the data acquisition software. […]

[1] = rat frontal cortex, cocaine 0.5 mg/kg IV

Question: Which results are given for COC(=O)[C@H]1[C@@H](OC(=O)c2ccccc2)C[C@@H]2CC[C@H]1N2C [cocaine]?
Answer: maximum increase of cortical CBF over baseline [1]: 41%; time to peak CBF [1]: approximately 3.5 minutes; time of return of CBF to baseline (rat frontal cortex, cocaine 0.5 mg/kg IV, post infusion): ≤ 25 min; maximum elevation of frontal cortex blood flow (rat, LDF, after 1 mg/kg cocaine): 35±3
